Data published in patent US20190298674A1 (Ovid Therapeutics, Inc., priority 2018, published 2019).

How the values were obtained:
in vivo = conditions: plasma
Excerpt: (§1) “PK” refers to the pharmacokinetic profile. Cmax is defined as the highest plasma drug concentration estimated during an experiment (ng/ml). Tmax is defined as the time when Cmax is estimated (min). AUC0-∞ is the total area under the plasma drug concentration-time curve, from drug administration until the drug is eliminated (ng·hr/ml). The area under the curve is governed by clearance. Clearance is defined as the volume of blood or plasma that is totally cleared of its content of drug per unit time (ml/min).

plasma pharmacokinetics = conditions: in the dose range 5 mg-500 mg
Excerpt: as §1

half-life (in vivo): 240 to 360 min
AUCs dose proportionality (plasma pharmacokinetics): greater than proportional increase
SMILES: N[C@H]1C[C@@H](C(=O)O)CC1=C(F)F
